Experimental data published in ChEMBL document CHEMBL2010784 (ACS Med Chem Lett, 2011).
Activity calls are given as the source filed them. The rule behind the calls is not given here.

Tests used:
[1] = system: Influenza B virus; experiment: Antiviral activity against influenza B virus infected in MDCK cells assessed as inhibition of viral-induced cytopathogenicity; format: functional, organism-based
[2] = system: Felid alphaherpesvirus 1; experiment: Antiviral activity against Feline herpes virus infected in CrFK cells assessed as inhibition of viral-induced cytopathogenicity; format: functional, organism-based
[3] = system: Coxsackievirus B4; experiment: Antiviral activity against Coxsackie B4 virus infected in african green monkey Vero cells assessed as inhibition of viral-induced cytopathogenicity; format: functional, organism-based
[4] = system: Human alphaherpesvirus 2; experiment: Antiviral activity against HSV-2 G infected in HEL cells assessed as inhibition of viral-induced cytopathogenicity; format: functional, organism-based; conditions: Human alphaherpesvirus 2, strain G
[5] = system: MT4; experiment: (§1) Cytotoxicity against human MT4 cells after 4 days by MTT assay; format: cell-based; conditions: mt4, 96 h
[6] = Cytotoxicity against human HEL cells assessed as changes in cell morphology by microscopy; format: cell-based
[7] = Selectivity index, ratio of MCC for human HEL cells to EC50 for HSV-2 G
[8] = system: Sindbis virus; experiment: Antiviral activity against Sindbis virus infected in african green monkey Vero cells assessed as inhibition of viral-induced cytopathogenicity; format: functional, organism-based
[9] = system: Human respirovirus 3; experiment: Antiviral activity against Parainfluenza-3 virus infected in african green monkey Vero cells assessed as inhibition of viral-induced cytopathogenicity; format: functional, organism-based
[10] = system: Vesicular stomatitis virus; experiment: Antiviral activity against VSV infected in human HeLa cells assessed as inhibition of viral-induced cytopathogenicity; format: functional, organism-based
[11] = system: Feline coronavirus; experiment: Antiviral activity against Feline coronavirus infected in CrFK cells assessed as inhibition of viral-induced cytopathogenicity; format: functional, organism-based
[12] = system: Punta Toro virus; experiment: Antiviral activity against Punta Toro virus infected in african green monkey Vero cells assessed as inhibition of viral-induced cytopathogenicity; format: functional, organism-based
[13] = system: Human alphaherpesvirus 1; experiment: Antiviral activity against ACV-resistant TK-deficient HSV-1 KOS infected in HEL cells assessed as inhibition of viral-induced cytopathogenicity; format: functional, organism-based; conditions: Human alphaherpesvirus 1, KOS
[14] = system: Influenza A virus; experiment: Antiviral activity against Influenza A virus H1N1 infected in MDCK cells assessed as inhibition of viral-induced cytopathogenicity; format: functional, organism-based
[15] = system: Influenza A virus; experiment: Antiviral activity against Influenza A virus H3N2 infected in MDCK cells assessed as inhibition of viral-induced cytopathogenicity; format: functional, organism-based
[16] = Selectivity index, ratio of CC50 for human MT-4 cells to EC50 for HIV-1; format: toxicity, cell-based, MT4; conditions: read-out: Ratio CC50/EC50
[17] = Selectivity index, ratio of MCC for human HEL cells to EC50 for HSV-1 KOS
[18] = system: Respiratory syncytial virus; experiment: Antiviral activity against RSV infected in human HeLa cells assessed as inhibition of viral-induced cytopathogenicity; format: functional, organism-based
[19] = system: Human alphaherpesvirus 1; experiment: Antiviral activity against HSV-1 KOS infected in HEL cells assessed as inhibition of viral-induced cytopathogenicity; format: functional, organism-based; conditions: Human alphaherpesvirus 1, KOS
[20] = system: Mammalian orthoreovirus 1; experiment: Antiviral activity against Reovirus-1 infected in african green monkey Vero cells assessed as inhibition of viral-induced cytopathogenicity; format: functional, organism-based
[21] = system: Human immunodeficiency virus 1; experiment: Antiviral activity against HIV-1 infected in human MT-4 cells assessed as inhibition of viral-induced cytopathogenicity after 4 days by MTT assay; format: functional, organism-based; conditions: Human immunodeficiency virus 1, MT4, 96 h
[22] = as §1; format: cell-based; conditions: MT4 cells

Row | Compound | Activity [1] | Activity [2] | Activity [3] | EC50 [4] | CC50 [5] | MCC [6] | Activity [8] | Activity [9] | Activity [10] | Activity [11] | Activity [12] | EC50 [13] | Activity [14] | Activity [15] | selectivity ratio [16] | Activity [18] | EC50 [19] | Activity [20] | EC50 [21] | other results
1 | C#C[C@]1(CO)S[C@@H](n2ccc(N)nc2=O)C[C@@H]1O | inactive | inactive | inactive | 1500 nM | 6000 nM | > 100 µM | inactive | inactive | inactive | inactive | inactive | 2500 nM | inactive | inactive | 545 | inactive | 2000 nM | inactive | 11 nM | Selectivity Index [7]: >50; Selectivity Index [17]: >50
2 | C#C[C@]1(CO)O[C@@H](n2ccc(N)nc2=O)C[C@@H]1O | – | inactive | inactive | – | – | – | inactive | inactive | inactive | inactive | inactive | – | – | – | – | inactive | – | inactive | 4.8 nM | –
3 | C#C[C@]1(CO)S[C@@H](n2cnc3c(=O)[nH]c(N)nc32)C[C@@H]1O | inactive | inactive | inactive | 1500 nM | > 100000 nM | > 100 µM | inactive | inactive | inactive | inactive | inactive | 4500 nM | inactive | inactive | > 18200 | inactive | 3000 nM | inactive | 5.5 nM | Selectivity Index [7]: >50; Selectivity Index [17]: >50
4 | C#C[C@]1(CO)O[C@@H](n2cnc3c(N)ncnc32)C[C@@H]1O | inactive | inactive | inactive | – | – | – | inactive | inactive | inactive | inactive | inactive | – | inactive | inactive | 1630 | inactive | – | inactive | 9.8 nM | CC50 at 96 h [22]: 16000 nM
5 | C#C[C@]1(CO)O[C@@H](n2cnc3c(=O)[nH]c(N)nc32)C[C@@H]1O | inactive | inactive | inactive | – | – | – | inactive | inactive | inactive | inactive | inactive | – | inactive | inactive | 933 | inactive | – | inactive | 1.5 nM | CC50 at 96 h [22]: 1400 nM
6 | C#C[C@]1(CO)S[C@@H](n2cnc3c(N)ncnc32)C[C@@H]1O | inactive | inactive | inactive | 4000 nM | > 20000 nM | > 100 µM | inactive | inactive | inactive | inactive | inactive | 8000 nM | inactive | inactive | > 230 | inactive | 7000 nM | inactive | 87 nM | –
7 | Nc1nc2c(ncn2COC(CO)CO)c(=O)[nH]1 [GANCICLOVIR] | – | – | – | – | – | > 100 µM | – | – | – | – | – | – | – | – | – | – | – | – | – | –
